In PubChem BioAssay AID248 (DTP/NCI, 2004):
Values joined by “and” are separate entries in the source; they are usually repeats but may differ in a detail not shown here. Equal entries are not always repeated. Inconclusive results and toxic doses are left out. No stated cut-off is given here; in the data, active means T/C of 150% or more; inactive means T/C below 125%.

System: L1210 leukemia ip in BDF1 mice, survival T/C
Test: NCI In Vivo Anticancer Drug Screen. Data for tumor model L1210 Leukemia (intraperitoneal) in B6D2F1 (BDF1) mice
Details: endpoint: mean survival time, higher = longer survival
How it was run: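 Value reflects the ratio of survival in compound-treated mice to survival in vehicle-treated controls, with both groups carrying the same transplanted tumor.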

[1] = dose: 100.0 mg/kg/injection, schedule: Q04DX003 (ip), vehicle: saline
[2] = dose: 200.0 mg/kg/injection, schedule: Q04DX003 (ip), vehicle: saline

Measured: T/C

COC(=O)C(CCCN=C(N)N)NC(=O)OCc1ccccc1 (stereo unspecified)
inactive: [1] 105 % of control | [2] 110 % of control | dose: 400.0 mg/kg/injection, schedule: Q04DX003 (ip), vehicle: saline 108 % of control

COc1cc(/C=C/c2ccnc3ccccc23)cc(OC)c1OC
inactive: dose: 5.0 mg/kg/injection, schedule: Q01DX001 (ip), vehicle: saline 96 % of control | dose: 10.0 mg/kg/injection, schedule: Q01DX001 (ip), vehicle: saline 102 % of control | dose: 20.0 mg/kg/injection, schedule: Q01DX001 (ip), vehicle: saline 102 % of control | dose: 40.0 mg/kg/injection, schedule: Q01DX001 (ip), vehicle: saline 91 % of control

O=C(O)C1=CCC=CC1C(=O)O (stereo unspecified)
inactive: dose: 25.0 mg/kg/injection, schedule: Q01DX009 (ip), vehicle: saline 93 % of control | dose: 50.0 mg/kg/injection, schedule: Q01DX009 (ip), vehicle: saline 95 % of control | dose: 100.0 mg/kg/injection, schedule: Q01DX009 (ip), vehicle: saline 98 % of control | [1] 95 % of control | [2] 93 % of control

O=C(Nc1ccccc1Cl)N(C1CCCCC1)C1CCCCC1
inactive: dose: 100.0 mg/kg/injection, schedule: Q04DX002 (ip), vehicle: Klucel (hydroxypropylcellulose) (HPC) 103 % of control | dose: 200.0 mg/kg/injection, schedule: Q04DX002 (ip), vehicle: Klucel (hydroxypropylcellulose) (HPC) 100 % of control | dose: 400.0 mg/kg/injection, schedule: Q04DX002 (ip), vehicle: Klucel (hydroxypropylcellulose) (HPC) 106 % of control

Cc1cc(-c2cc(C)sc2C)c(C)s1
inactive: dose: 100.0 mg/kg/injection, schedule: Q01DX009 (ip), vehicle: saline with Tween-80 87 % of control | dose: 100.0 mg/kg/injection, schedule: Q04DX003 (ip), vehicle: saline with Tween-80 96 % of control | dose: 200.0 mg/kg/injection, schedule: Q01DX009 (ip), vehicle: saline with Tween-80 92 % of control | dose: 200.0 mg/kg/injection, schedule: Q04DX003 (ip), vehicle: saline with Tween-80 94 % of control | dose: 400.0 mg/kg/injection, schedule: Q01DX009 (ip), vehicle: saline with Tween-80 94 % of control | dose: 400.0 mg/kg/injection, schedule: Q04DX003 (ip), vehicle: saline with Tween-80 96 % of control

O=C1CC(=O)N(c2ccccc2)N1
inactive: dose: 100.0 mg/kg/injection, schedule: Q01DX001 (ip), vehicle: saline 96 % of control | dose: 200.0 mg/kg/injection, schedule: Q01DX001 (ip), vehicle: saline 98 % of control | dose: 400.0 mg/kg/injection, schedule: Q01DX001 (ip), vehicle: saline 98 % of control

CC(C)C(=O)[O][Sn]([CH3])([CH3])[CH3]
inactive: dose: 0.19 mg/kg/injection, schedule: Q01DX009 (ip), vehicle: Klucel (hydroxypropylcellulose) (HPC) 90 % of control | dose: 0.39 mg/kg/injection, schedule: Q01DX009 (ip), vehicle: Klucel (hydroxypropylcellulose) (HPC) 95 % of control | dose: 0.78 mg/kg/injection, schedule: Q01DX009 (ip), vehicle: Klucel (hydroxypropylcellulose) (HPC) 93 % of control and 106 % of control | dose: 0.78 mg/kg/injection, schedule: Q04DX002 (ip), vehicle: Klucel (hydroxypropylcellulose) (HPC) 95 % of control | dose: 1.56 mg/kg/injection, schedule: Q04DX002 (ip), vehicle: Klucel (hydroxypropylcellulose) (HPC) 100 % of control | dose: 3.12 mg/kg/injection, schedule: Q04DX002 (ip), vehicle: Klucel (hydroxypropylcellulose) (HPC) 103 % of control

Cc1cccc(C)c1NC(=O)Nc1cccc(O)c1
inactive: dose: 100.0 mg/kg/injection, schedule: Q01DX009 (ip), vehicle: Klucel (hydroxypropylcellulose) (HPC) 101 % of control | dose: 200.0 mg/kg/injection, schedule: Q01DX009 (ip), vehicle: Klucel (hydroxypropylcellulose) (HPC) 108 % of control | dose: 400.0 mg/kg/injection, schedule: Q01DX009 (ip), vehicle: Klucel (hydroxypropylcellulose) (HPC) 103 % of control

CCN(c1ccccc1)P(I)(c1ccccc1)(c1ccccc1)c1ccccc1
inactive: dose: 1.17 mg/kg/injection, schedule: Q01DX001 (ip), vehicle: other 107 % of control | dose: 2.34 mg/kg/injection, schedule: Q01DX001 (ip), vehicle: other 114 % of control | dose: 4.69 mg/kg/injection, schedule: Q01DX001 (ip), vehicle: other 107 % of control
